Source: patent US9096518B2, “Substituted hydroxamic acids and uses thereof” (Millennium Pharmaceuticals, Inc., priority 2009, dated 2015)

What follows are molecules tested against T1, purified human HDAC6 (Homo sapiens, UniProt Q9UBN7) (assay: HDAC6 Enzyme Assay).
T1 construct: purchased BPS Bioscience 5006
T1 sequence (Q9UBN7 1-1215): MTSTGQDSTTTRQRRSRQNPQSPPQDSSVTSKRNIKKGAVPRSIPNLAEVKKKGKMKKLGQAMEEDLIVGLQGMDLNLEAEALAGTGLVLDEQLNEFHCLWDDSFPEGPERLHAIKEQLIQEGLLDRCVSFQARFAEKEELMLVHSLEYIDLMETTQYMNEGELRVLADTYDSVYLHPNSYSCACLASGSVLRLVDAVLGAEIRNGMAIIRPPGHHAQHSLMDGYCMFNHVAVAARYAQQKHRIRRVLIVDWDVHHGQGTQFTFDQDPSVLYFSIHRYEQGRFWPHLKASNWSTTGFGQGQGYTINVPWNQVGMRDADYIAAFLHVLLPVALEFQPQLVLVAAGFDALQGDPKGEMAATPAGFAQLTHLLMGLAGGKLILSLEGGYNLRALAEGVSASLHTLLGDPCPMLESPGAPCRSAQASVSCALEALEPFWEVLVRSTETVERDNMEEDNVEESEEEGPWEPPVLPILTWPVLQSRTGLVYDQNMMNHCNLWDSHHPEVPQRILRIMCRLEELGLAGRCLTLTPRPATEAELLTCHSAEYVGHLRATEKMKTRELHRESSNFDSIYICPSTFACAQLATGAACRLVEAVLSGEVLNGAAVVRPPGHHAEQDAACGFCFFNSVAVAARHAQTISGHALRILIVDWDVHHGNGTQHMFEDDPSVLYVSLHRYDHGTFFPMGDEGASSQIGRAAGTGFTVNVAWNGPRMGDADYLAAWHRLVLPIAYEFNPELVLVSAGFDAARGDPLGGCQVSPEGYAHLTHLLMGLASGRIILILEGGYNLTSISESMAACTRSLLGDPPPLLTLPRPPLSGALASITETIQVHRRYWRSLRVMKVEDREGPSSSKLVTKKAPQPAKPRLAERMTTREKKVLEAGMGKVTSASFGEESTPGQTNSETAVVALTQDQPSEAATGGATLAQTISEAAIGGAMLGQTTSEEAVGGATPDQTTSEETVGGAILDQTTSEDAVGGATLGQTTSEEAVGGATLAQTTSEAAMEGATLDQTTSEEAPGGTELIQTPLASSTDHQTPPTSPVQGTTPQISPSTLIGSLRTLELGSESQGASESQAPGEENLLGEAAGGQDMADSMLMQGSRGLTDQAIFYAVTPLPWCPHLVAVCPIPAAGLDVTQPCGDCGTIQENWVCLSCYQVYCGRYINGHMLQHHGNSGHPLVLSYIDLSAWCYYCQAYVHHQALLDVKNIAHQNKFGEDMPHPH
Assay type: biochemical
Protocol: To measure the inhibition of HDAC6 activity, purified human HDAC6 (BPS Bioscience; Cat. No. 5006) is incubated with substrate Ac-Arg-Gly-Lys(Ac)-AMC peptide (Bachem Biosciences; Cat. No. I-1925) for 1 hour at 30° C. in the presence of test compounds or vehicle DMSO control. The reaction is stopped with the HDAC inhibitor trichostatin A (Sigma; Cat. No. T8552) and the amount of Arg-Gly-Lys-AMC generated is quantitated by digestion with trypsin (Sigma; Cat. No. T1426) and subsequent measurement of the amount of AMC released using a fluorescent plate reader (Pherastar; BMG Technologies) set at Ex 340 nm and Em 460 nm. Concentration response curves are generated by calculating the fluorescence increase in test compound-treated samples relative to DMSO-treated controls, and enzyme inhibition (IC50) values are determined from those curves.

First: Cc1ccc(C(C)C(=O)N2CCc3cc(C(=O)NO)ccc3C2)cc1 (centres unmarked) [Compound 10, N-hydroxy-2-[2-(4-methylphenyl)propanoyl]-1,2,3,4-tetrahydroisoquinoline-6-carboxamide]
Second: CC(C)c1ccc(NC(=O)N2CCc3cc(C(=O)NO)ccc3C2)cc1 [Compound 104, N^6-hydroxy-N^2-(4-isopropylphenyl)-3,4-dihydroisoquinoline-2,6(1H)-dicarboxamide]
The IC50 of the first is higher: 50 to 100 nM for the first, under 50 nM for the second. The second is the more potent here.

First: O=C(NO)c1ccc2c(c1)CCCN(C(=O)c1cccc3ccccc13)C2 [Compound 234, N-hydroxy-2-(1-naphthoyl)-2,3,4,5-tetrahydro-1H-2-benzazepine-7-carboxamide]
Second: O=C(NO)c1ccc2c(c1)CCN(C(=O)Nc1cccc3ccccc13)C2 [Compound 100, N^6-hydroxy-N^2-1-naphthyl-3,4-dihydroisoquinoline-2,6(1H)-dicarboxamide]
The IC50 of the first is higher: 100 to 500 nM for the first, under 50 nM for the second.

First: O=C(NO)c1ccc2c(c1)CCN(CCCc1ccccc1)C2 [Compound 62, N-hydroxy-2-(3-phenylpropyl)-1,2,3,4-tetrahydroisoquinoline-6-carboxamide]
Second: O=C(NO)c1ccc2c(c1)CCN(Cc1ccccc1)C2 [Compound 57, 2-benzyl-N-hydroxy-1,2,3,4-tetrahydroisoquinoline-6-carboxamide]
The IC50 of the first is higher: 100 to 500 nM for the first, 50 to 100 nM for the second. The second is the more potent here.

O=C(NO)c1ccc2c(c1)CCCN(C(=O)C1CCCCCC1)C2 [Compound 246, 2-(cycloheptylcarbonyl)-N-hydroxy-2,3,4,5-tetrahydro-1H-2-benzazepine-7-carboxamide] and CC(=O)N1CCC(C(=O)N2CCc3cc(C(=O)NO)ccc3C2)CC1 [Compound 36, 2-[(1-acetylpiperidin-4-yl)carbonyl]-N-hydroxy-1,2,3,4-tetrahydroisoquinoline-6-carboxamide] fall in the same range of IC50: 100 to 500 nM for the first, 100 to 500 nM for the second.

First: COc1ccccc1-c1nc(CN2CCc3cc(C(=O)NO)ccc3C2)no1 [Compound 72, N-hydroxy-2-{[5-(2-methoxyphenyl)-1,2,4-oxadiazol-3-yl]methyl}-1,2,3,4-tetrahydroisoquinoline-6-carboxamide]
Second: O=C(NO)c1ccc2c(c1)CCN(Cc1ccc3nonc3c1)C2 [Compound 65, 2-(2,1,3-benzoxadiazol-5-ylmethyl)-N-hydroxy-1,2,3,4-tetrahydroisoquinoline-6-carboxamide]
The IC50 of the first is lower: under 50 nM for the first, 100 to 500 nM for the second.

Cn1cccc1C(=O)N1Cc2ccc(C(=O)NO)cc2C1 [Compound 78, N-hydroxy-2-[(1-methyl-1H-pyrrol-2-yl)carbonyl]isoindoline-5-carboxamide] and COc1cc(Cl)ccc1C(=O)N1Cc2ccc(C(=O)NO)cc2C1 [Compound 79, 2-(4-chloro-2-methoxybenzoyl)-N-hydroxyisoindoline-5-carboxamide] cannot be ordered by IC50: under 50 nM for the first, under 50 nM for the second.

First: CC(C)(C)c1ccc(C(=O)N2CCCc3cc(C(=O)NO)ccc3C2)cc1 [Compound 238, 2-(4-tert-butylbenzoyl)-N-hydroxy-2,3,4,5-tetrahydro-1H-2-benzazepine-7-carboxamide]
Second: Cc1ccc2[nH]c(C(=O)N3CCCc4cc(C(=O)NO)ccc4C3)cc2c1 [Compound 253, N-hydroxy-2-[(5-methyl-1H-indol-2-yl)carbonyl]-2,3,4,5-tetrahydro-1H-2-benzazepine-7-carboxamide]
The IC50 of the first is higher: 100 to 500 nM for the first, under 50 nM for the second.

Compared with O=C(NO)c1ccc2c(c1)CCN(Cc1ccc(C(F)(F)F)cc1)C2 [Compound 66, N-hydroxy-2-[4-(trifluoromethyl)benzyl]-1,2,3,4-tetrahydroisoquinoline-6-carboxamide], O=C(NO)c1ccc2c(c1)CCN(C(=O)Cc1ccc(C(F)(F)F)cc1)C2 [Compound 3, N-hydroxy-2-{[4-(trifluoromethyl)phenyl]acetyl}-1,2,3,4-tetrahydroisoquinoline-6-carboxamide] is lower in IC50: 100 to 500 nM for the first, 50 to 100 nM for the second.

First: O=C(NO)c1ccc2c(c1)CCN(CCCOc1ccccc1)C2 [Compound 67, N-hydroxy-2-(3-phenoxypropyl)-1,2,3,4-tetrahydroisoquinoline-6-carboxamide]
Second: O=C(NO)c1ccc2c(c1)CCN(S(=O)(=O)Cc1ccccc1)C2 [Compound 39, 2-(benzylsulfonyl)-N-hydroxy-1,2,3,4-tetrahydroisoquinoline-6-carboxamide]
The IC50 of the first is higher: 100 to 500 nM for the first, 50 to 100 nM for the second. The second is the more potent here.

First: O=C(NO)c1ccc2c(c1)CCN(S(=O)(=O)CC(c1ccccc1)c1ccccc1)C2 [Compound 56, 2-[(2,2-diphenylethyl)sulfonyl]-N-hydroxy-1,2,3,4-tetrahydroisoquinoline-6-carboxamide]
Second: O=C(NO)c1ccc2c(c1)CCN(S(=O)(=O)c1ccc3ccccc3c1)C2 [Compound 47, N-hydroxy-2-(2-naphthylsulfonyl)-1,2,3,4-tetrahydroisoquinoline-6-carboxamide]
The IC50 of the first is higher: 100 to 500 nM for the first, under 50 nM for the second.

First: CC(=O)N[C@H](CC(C)C)C(=O)N1CCc2cc(C(=O)NO)ccc2C1 [Compound 17, 2-[(2R)-2-(acetylamino)-4-methylpentanoyl]-N-hydroxy-1,2,3,4-tetrahydroisoquinoline-6-carboxamide]
Second: CC1(C(=O)N2CCc3cc(C(=O)NO)ccc3C2)CC1 [Compound 23, N-hydroxy-2-(1-methylcyclopropanecarbonyl)-1,2,3,4-tetrahydroisoquinoline-6-carboxamide]
The IC50 of the first is higher: 100 to 500 nM for the first, 50 to 100 nM for the second.

O=C(NO)c1ccc2c(c1)CCN(C(=O)Nc1cccc(C(F)(F)F)c1)C2 [Compound 98, N^6-hydroxy-N^2-[3-(trifluoromethyl)phenyl]-3,4-dihydroisoquinoline-2,6(1H)-dicarboxamide] and O=C(NO)c1ccc2c(c1)CCN(C(=O)Nc1ccc3c(c1)CCO3)C2 [Compound 89, N^2-(2,3-dihydro-1-benzofuran-5-yl)-N^6-hydroxy-3,4-dihydroisoquinoline-2,6(1H)-dicarboxamide] cannot be ordered by IC50: under 50 nM for the first, under 50 nM for the second.

O=C(NO)c1ccc2c(c1)CCN(S(=O)(=O)c1ccc(F)cc1)C2 [Compound 50, 2-[(4-fluorophenyl)sulfonyl]-N-hydroxy-1,2,3,4-tetrahydroisoquinoline-6-carboxamide] and Cc1nc(S(=O)(=O)N2CCc3cc(C(=O)NO)ccc3C2)cn1C [Compound 51, 2-[(1,2-dimethyl-1H-imidazol-4-yl)sulfonyl]-N-hydroxy-1,2,3,4-tetrahydroisoquinoline-6-carboxamide] fall in the same range of IC50: 100 to 500 nM for the first, 100 to 500 nM for the second.

Compared with Cc1c(-c2csc(N3CCc4cc(C(=O)NO)ccc4C3)n2)sc2ccccc12 [Compound 76, N-hydroxy-2-[4-(3-methyl-1-benzothien-2-yl)-1,3-thiazol-2-yl]-1,2,3,4-tetrahydroisoquinoline-6-carboxamide], O=C(NO)c1ccc2c(c1)CCN(C(=O)c1cc3ccccc3[nH]1)C2 [Compound 8, N-hydroxy-2-(1H-indol-2-ylcarbonyl)-1,2,3,4-tetrahydroisoquinoline-6-carboxamide] is lower in IC50: 50 to 100 nM for the first, under 50 nM for the second. The second is the more potent here.

First: COc1cccc2cc(C(=O)N3CCCc4cc(C(=O)NO)ccc4C3)oc12 [Compound 242, N-hydroxy-2-[(7-methoxy-1-benzofuran-2-yl)carbonyl]-2,3,4,5-tetrahydro-1H-2-benzazepine-7-carboxamide]
Second: Cc1cc(C)c(C(=O)N2CCCc3cc(C(=O)NO)ccc3C2)c(C)c1 [Compound 259]
The IC50 of the first is lower: under 50 nM for the first, over 500 nM for the second. The first is the more potent here.

Compared with Cc1cccc(C)c1NC(=O)CN1CCc2cc(C(=O)NO)ccc2C1 [Compound 116, 2-{2-[(2,6-dimethylphenyl)amino]-2-oxoethyl}-N-hydroxy-1,2,3,4-tetrahydroisoquinoline-6-carboxamide], CC(=O)N/C(=C\c1ccccc1)C(=O)N1CCCc2cc(C(=O)NO)ccc2C1 [Compound 254, 2-[(2Z)-2-(acetylamino)-3-phenylprop-2-enoyl]-N-hydroxy-2,3,4,5-tetrahydro-1H-2-benzazepine-7-carboxamide] is higher in IC50: 50 to 100 nM for the first, 100 to 500 nM for the second. The first is the more potent here.
